Assay [1] has as its target T1, Aldehyde oxidase (Homo sapiens, UniProt Q06278).
T1 sequence (Q06278 whole entry): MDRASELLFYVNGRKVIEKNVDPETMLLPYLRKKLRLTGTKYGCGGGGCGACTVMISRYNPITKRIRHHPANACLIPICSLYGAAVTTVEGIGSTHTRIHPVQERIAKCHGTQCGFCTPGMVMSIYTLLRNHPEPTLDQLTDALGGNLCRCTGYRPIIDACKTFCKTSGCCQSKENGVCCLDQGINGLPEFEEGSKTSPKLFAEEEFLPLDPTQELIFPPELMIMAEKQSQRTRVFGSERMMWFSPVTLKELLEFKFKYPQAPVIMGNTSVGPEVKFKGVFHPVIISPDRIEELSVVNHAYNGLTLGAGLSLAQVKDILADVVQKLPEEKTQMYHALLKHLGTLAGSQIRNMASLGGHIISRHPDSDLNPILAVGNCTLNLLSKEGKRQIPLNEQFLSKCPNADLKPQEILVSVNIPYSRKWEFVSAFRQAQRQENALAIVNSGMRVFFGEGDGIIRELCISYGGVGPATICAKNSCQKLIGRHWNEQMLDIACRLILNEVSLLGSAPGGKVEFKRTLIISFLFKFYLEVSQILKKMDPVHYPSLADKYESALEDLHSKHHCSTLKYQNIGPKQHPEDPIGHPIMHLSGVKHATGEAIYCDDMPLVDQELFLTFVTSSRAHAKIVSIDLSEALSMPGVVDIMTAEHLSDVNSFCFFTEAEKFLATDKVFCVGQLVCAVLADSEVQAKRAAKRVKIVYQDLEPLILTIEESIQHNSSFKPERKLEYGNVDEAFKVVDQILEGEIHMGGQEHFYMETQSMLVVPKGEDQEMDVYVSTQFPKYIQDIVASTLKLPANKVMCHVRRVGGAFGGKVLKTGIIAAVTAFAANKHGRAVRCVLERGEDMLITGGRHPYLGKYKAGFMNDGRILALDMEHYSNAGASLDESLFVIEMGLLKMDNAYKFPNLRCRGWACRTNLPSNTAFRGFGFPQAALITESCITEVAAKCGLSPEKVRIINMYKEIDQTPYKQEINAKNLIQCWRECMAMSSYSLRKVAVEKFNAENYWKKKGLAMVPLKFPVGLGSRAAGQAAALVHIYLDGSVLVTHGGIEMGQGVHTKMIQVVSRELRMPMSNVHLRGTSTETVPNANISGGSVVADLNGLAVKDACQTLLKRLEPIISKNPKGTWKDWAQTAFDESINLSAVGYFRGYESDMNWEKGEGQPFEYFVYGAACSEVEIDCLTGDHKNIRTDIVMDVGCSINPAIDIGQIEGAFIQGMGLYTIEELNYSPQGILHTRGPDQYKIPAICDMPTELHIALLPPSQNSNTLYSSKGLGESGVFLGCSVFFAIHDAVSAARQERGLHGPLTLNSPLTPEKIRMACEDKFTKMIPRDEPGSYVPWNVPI
Description: Mixed type inhibition of human AOX assessed as inhibitor dissociation constant by measuring changes in slope of the double reciprocal plot using phenanthridine as substrate by Michaelis-Menten analysis. Conditions: read-out: Kis.

Assay [2] has as its target T1, Aldehyde oxidase. Description: Mixed type inhibition of human AOX assessed as inhibitor dissociation constant by measuring changes in intercept of the double reciprocal plot using phenanthridine as substrate by Michaelis-Menten analysis. The note with it: read-out: Kii.
Assay [3] has as its target T1, Aldehyde oxidase. Description: Noncompetitive type inhibition of human AOX assessed as inhibitor dissociation constant by measuring changes in intercept of the double reciprocal plot using phthalazine as substrate by Michaelis-Menten analysis. The note with it: read-out: Kii.
Assay [4] concerns the target T1, Aldehyde oxidase. The assay is described as follows: Noncompetitive type inhibition of human AOX assessed as inhibitor dissociation constant by measuring slope of the double reciprocal plot using phthalazine as substrate by Michaelis-Menten analysis. The note with it: read-out: Kis.

On to `N=C(N)c1ccccc1` [BENZAMIDINE], for which the Ki on Aldehyde oxidase [1] stood at 1240 µM; at Aldehyde oxidase [2], 1620 µM.
Turning to `CSc1ccc2c(c1)N(CCC1CCCCN1C)c1ccccc1S2` (centres undefined) [THIORIDAZINE], the Ki on Aldehyde oxidase [3] and at Aldehyde oxidase [4] was 1.3 µM in each case.

Values taken from ChEMBL document CHEMBL5029156 (J Med Chem, 2021).
